Results taken from patent US20250214925A1, “CATIONIC LIPID, LIPOSOME, LIPID NANOPARTICLE, AND USE” (CARCELL BIOPHARMA LTD., priority 2022, published 2025).

Legend:
[1] = mRNA encapsulation efficiency of LNP by Ribogreen assay; format: physicochemical; conditions: LNP: 50% cationic lipid, 38.5% cholesterol, 10% DSPC, 1.5% DMG-PEG2000; Ffluc mRNA
Procedure: (§1) 1. The cationic lipid (50 mg/mL) prepared in the above examples of the present disclosure, cholesterol (20 mg/mL), DSPC (20 mg/mL) and DMG-PEG2000 (20 mg/mL) were dissolved in ethanol, and the solution was placed in a 55° C. metal thermostatic bath as needed to aid dissolution, to obtain a lipid mixture with the following molar composition: 1.5% DMG-PEG2000, 50% cationic lipid, 38.5% cholesterol, and 10% DSPC.
(§2) 2. The mRNA encoding Ffluc was diluted with 10 mM pH 4.0 citrate buffer to prepare a 0.2 mg/mL mRNA solution.
(§3) 3. The lipid mixture prepared in step 1 was mixed with the mRNA solution prepared in step 2 using a syringe pump with a tee at a total flow rate of 40 mL/min.
(§4) 4. The LNP mixture was collected after the three-way mixing and placed in a dialysis bag with a molecular weight cut-off of 100 KDa.
(§5) 5. The LNP mixture was dialyzed overnight against 50 mM Tris-buffered saline, pH 7.4.
(§6) 6. Sieving, and subsequent measurement of the sieved LNP to measure the PDI of the LNP by dynamic laser light scattering; to measure the mRNA encapsulation efficiency and concentration by Ribogreen assay; and to measure the pKa by TNS-α assay.

[2] = LNP size and PDI by dynamic laser light scattering; format: physicochemical; conditions: LNP: 50% cationic lipid, 38.5% cholesterol, 10% DSPC, 1.5% DMG-PEG2000; Ffluc mRNA
Procedure: as §1, §2, §3, §4, §5, §6

mice = experiment: In vivo delivery of Ffluc mRNA LNP in mice, intravenous administration, luminescence relative to MC3; set-up: species or system mice (female Balb/C); conditions: fold change in luminescence intensity relative to MC3; 0.06 mg/kg tail vein; 6 h after injection
Procedure: The prepared encapsulation solution was applied to mice in the following manner, and its delivery efficiency in mice was tested. Among them, DLin-MC3-DMA (MC3) was a cationic liposome for delivering small nucleic acids that was approved by the FDA for marketing in 2018, which has high nucleic acid drug delivery efficiency and biosafety, and was usually used as the industry gold standard in the screening process of cationic lipids. In the evaluation of mice experiments, the ratio of nucleic acid delivery efficiency normalized to MC3 was greater than 0.1, which was considered to be a cationic lipid with high delivery efficiency.
1. The LNP solution was diluted with 50 mM TBS, pH 7.4 to a concentration of 0.1 mg/mL mRNA.
2. The mice involved in this study were female Balb/C, weighing 18-22 g, 6-8 weeks old, with 5 mice in each group.
3. The dosing solution was kept at 4° C. prior to injection.
4. Each mice received 0.06 mg/kg via tail vein injection.
5. The mice were injected intraperitoneally with 200 μL of 1.5 mg/mL D-luciferin solution 6 h after injection.
6. The in vivo luminescence images of the mice were obtained using the IVIS system (Aniview).
7. The luminescence intensity of each mice was measured using Aniview software.
8. MC3 lipid nanoparticles were used as a positive control. The in vivo efficacy of each cationic lipid tested was recorded as the fold change in luminescence intensity relative to MC3 (ratio normalized to MC3).

SMILES	Encapsulation Rate [1] [%]	PDI [2]	Size (nm) [2] [nm]	In Vivo Efficacy Normalized To Mc3 In Mice (Intravenous Injection) (mice)
CCCCCCCCCC/C(=C/C(=O)OCCCCCN(CCCO)CCCCCOC(=O)/C=C(\CCCCC)CCCCCCCCCC)CCCCC [CPL-048, ((3-hydroxypropyl)azanediyl)bis(pentane-5,1-diyl) (2E,2′E)-bis(3-pentyltridec-2-enoate)]	94	0.2409	110.1	1.57
CCCCCCC(=CC(=O)OCCCCCN(CCCO)CCCCCOC(=O)C=C(CCCCCC)CCCCCC)CCCCCC [CPL-049, ((3-hydroxypropyl)azanediyl)bis(pentane-5,1-diyl)(2E,2′E)-bis(3-hexylnon-2-enoate)]	90	0.1651	101.6	1.88
CCCCCCC/C(=C/C(=O)OCCCCCN(CCCO)CCCCCOC(=O)/C=C(\CCCC)CCCCCCC)CCCC [CPL-052, ((3-hydroxypropyl)azanediyl)bis(pentane-5,1-diyl) (2E,2′E)-bis(3-butyldec-2-enoate)]	93	0.1162	90.76	1.46
CCCCCCCC/C(=C/C(=O)OCCCCCCN(CCCO)CCCCCCOC(=O)/C=C(\CCC)CCCCCCCC)CCC [CPL-061, ((3-hydroxypropyl)azanediyl)bis(hexane-6,1-diyl) (2E,2′E)-bis(3-propylundec-2-enoate)]	94	0.1612	94.04	1.06
CCCCCCCC/C(=C/C(=O)OCCCCCCN(CCCO)CCCCCCOC(=O)/C=C(\CCCC)CCCCCCCC)CCCC [CPL-065, ((3-hydroxypropyl)azanediyl)bis(hexane-6,1-diyl) (2E,2′E)-bis(3-butylundec-2-enoate)]	95	0.1898	83.7	1.62
CCCCCC/C(=C/C(=O)OCCCCCCCN(CCCO)CCCCCCCOC(=O)/C=C(\CCCCC)CCCCCC)CCCCC [CPL-090, ((3-hydroxypropyl)azanediyl)bis(heptane-7,1-diyl) (2E,2′E)-bis(3-pentylnon 2-enoate)]	94	0.1615	85.28	2.02
CCCCCC/C(=C/C(=O)OCCCCCCCCN(CCCO)CCCCCCCCOC(=O)/C=C(\CCCCC)CCCCCC)CCCCC [CPL-112, ((3-hydroxypropyl)azanediyl)bis(octane-8,1-diyl)(2E,2′E)-bis(3-pentylnon-2-enoate)]	95	0.1173	85.04	2.14
CCCCCCC/C(=C/C(=O)OCCCCCCCCCCCN(CCCO)CCCCCCCCCCCOC(=O)/C=C(\CCCC)CCCCCCC)CCCC [CPL-184, ((3-hydroxypropyl)azanediyl)bis(undecane-11,1-diyl) (2E,2′E)-bis(3butyldec-2-enoate)]	94	0.173	84.6	0.98
CCCCC/C=C\C/C=C\CCCCCCCC(=O)OCC(COC(=O)/C=C(\CCCC)CCCCC)COC(=O)OCCN(C)C (stereo not shown) [CPL-199, 3-(((E)-3-butyloct-2-enoyl)oxy)-2-((((2-(dimethylamino)ethoxy)carbonyl)oxy)methyl)propyl(9Z,12Z)-octadeca-9,12-dienoate]	96	0.1394	86.92	0.12
CCCCC/C=C\C/C=C\CCCCCCCC(=O)OCC(COC(=O)C=C(CCCCCCCC)CCCCCCCC)COC(=O)OCCN(C)C (stereo not shown) [CPL-210, 3-(((2-(dimethylamino)ethoxy)carbonyl)oxy)-2-(((3-octylundec-2-enoyl)oxy)methyl)propyl(9Z,12Z)-octadeca-9,12-dienoate]	83	0.2144	52.37	0.14
CCCCC/C=C\C/C=C\CCCCCCCC(=O)OCC(COC(=O)/C=C(/CCCC)CCCCCC)COC(=O)OCCCN(C)C (stereo not shown) [CPL-218, 3-(((Z)-3-butylnon-2-enoyl)oxy)-2-((((3-(dimethylamino)propoxy)carbonyl)oxy)methyl)propyl(9Z,12Z)-octadeca-9,12-dienoate]	87	0.1194	114.4	0.19
CCCCC/C=C\C/C=C\CCCCCCCC(=O)OCC(COC(=O)/C=C(\CCCC)CCCCC)COC(=O)OCCCN(C)C (stereo not shown) [CPL-221, 3-(((E)-3-butyloct-2-enoyl)oxy)-2-((((3-(dimethylamino)propoxy)carbonyl)oxy)methyl)propyl(9Z,12Z)-octadeca-9,12-dienoate]	96	0.0453	82.01	0.44
CCCCC/C=C\C/C=C\CCCCCCCC(=O)OCC(COC(=O)/C=C(\CCCCC)CCCCCC)COC(=O)OCCCN(C)C (stereo not shown) [CPL-222, 3-(((3-(dimethylamino)propoxy)carbonyl)oxy)-2-((((E)-3-pentylnon-2-enoyl)oxy)methyl)propyl(9Z,12Z)-octadeca-9,12-dienoate]	96	0.0629	72.01	0.37
CCCCC/C=C\C/C=C\CCCCCCCC(=O)OCC(COC(=O)/C=C(\CCCCC)CCCCCCCC)COC(=O)OCCCN(C)C (stereo not shown) [CPL-223, 3-(((3-(dimethylamino)propoxy)carbonyl)oxy)-2-((((E)-3-pentylundec-2-enoyl)oxy)methyl)propyl(9Z,12Z)-octadeca-9,12-dienoate]	98	0.102	99.55	0.41
CCCCC/C=C\C/C=C\CCCCCCCC(=O)OCC(COC(=O)/C=C(\CCCCC)CCCCCCCCCC)COC(=O)OCCCN(C)C (stereo not shown) [CPL-224, 3-(((3-(dimethylamino)propoxy)carbonyl)oxy)-2-((((E)-3-pentyltridec-2-enoyl)oxy)methyl)propyl(9Z,12Z)-octadeca-9,12-dienoate]	94	0.1162	90.88	0.87
CCCCC/C=C\C/C=C\CCCCCCCC(=O)OCC(COC(=O)/C=C(\CCCCCCC)CCCCCCCCCC)COC(=O)OCCCN(C)C (stereo not shown) [CPL-231, 3-(((3-(dimethylamino)propoxy)carbonyl)oxy)-2-((((E)-3-heptyltridec-2-enoyl)oxy)methyl)propyl(9Z,12Z)-octadeca-9,12-dienoate]	95	0.1118	69.42	0.55
CCCCC/C=C\C/C=C\CCCCCCCC(=O)OCC(COC(=O)/C=C(\CCCCCCC)CCCCCCCC)COC(=O)OCCCCN(C)C (stereo not shown) [CPL-252]	98	0.1369	86.5	0.34
CCCCC/C=C\C/C=C\CCCCCCCC(=O)OCC(COC(=O)C=C(CCCCCCCCCC)CCCCCCCCCC)COC(=O)OCCCCN(C)C (stereo not shown) [CPL-256, 3-((3-decyltridec-2-enoyl)oxy)-2-((((4-(dimethylamino)butyloxy)carbonyl)oxy)methyl)propyl(9Z,12Z)-octadeca-9,12-dienoate]	95	0.1009	83.7	0.63
CCCCC/C=C\C/C=C\CCCCCCCC(=O)OCC(COC(=O)/C=C(\CCCCC)CCCCCC)COC(=O)OCCCN(CC)CC (stereo not shown) [CPL-266, 3-(((3-(diethylamino)propoxy)carbonyl)oxy)-2-((((E)-3-pentylnon-2-enoyl)oxy)methyl)propyl(9Z,12Z)-octadeca-9,12-dienoate]	97	0.0481	68.11	0.72
